{
  "source": "ChEMBL document CHEMBL1128958",
  "about": "“Synthesis and biological activity of the neuronal calcium channel blocker 2-amino-1-(2,5-dimethoxyphenyl)-5-trifluoromethyl benzimidazole (NS-649)” (Bioorg Med Chem Lett, 1996)",
  "key": {"[1]": {"species_on_record": "Cavia porcellus", "experiment": "Effect on [Ca2+]-induced contractions in potassium-depolarized guinea pig taenia coli", "format": "functional"}, "[2]": {"species_on_record": "Mus musculus", "experiment": "Concentration that blocked potassium evoked release of [3H]D-aspartate from mouse cerebellar granule neurons", "format": "functional"}},
  "data": [
    {"smiles": "COc1ccc(OC)c(-n2c(N)nc3cc(C(F)(F)F)ccc32)c1", "values": [
      {"measurement": "Concentration", "setting": "[1]", "result": 30, "unit": "µM"},
      {"measurement": "IC50", "setting": "[2]", "result": "~2.4", "unit": "µM"}
    ]}
  ]
}
